Structures can show the parent of a compound that is named as a salt. Where two headings read alike, the source gives them in different places.
How the values were obtained:
[1] = tested on: isolated right ventricular trabecule of dog heart; test: Extracellular electrophysiological measurements: impulse conduction time and effective refractory period; design: species or system mongrel dogs; conditions: for activation at 10 µM / activation at 2 µM: Canis lupus familiaris; for effect on effective refractory period (in words) / effect on impulse conduction (in words): concentrations of Table 1
Method: Right ventricular trabecules were prepared from the heart of mongrel dogs (weighing 5 to 10 kg each). The surviving heart pieces were placed into an organ bath (37° C.) containing modified Tyrode's nutrient medium and excited by point stimulation with a basal frequency of 1 Hz. Extracellular bipolar platinum electrodes were placed on the surface of the preparations, by means of which the propagation of the superficial potentials were registered; thus, the determination of the time of impulse conduction or the rate of impulse conduction, respectively, and the effective refractory period (ERP) became possible. During our experiments,the frequency of stimulation was temporarily varied from 0.5 Hz up to 3 Hz. The tested compounds were directly added to the organ bath after dilution of the stock solution according to the desired final concentration.

[2] = tested on: right ventricular papillary muscle of dogs; test: Intracellular microelectrode technique: action potential parameters, ventricular papillary muscle; design: species or system mongrel dogs; conditions: for Trecovery (recovery time constant of Vmax): Gy: kinetics of rapid restoration; for effect on duration of the action potential (in words) / effect on Vmax (in words): concentrations of Table 2; for effect on Vmax (in words): rapid recovery kinetics
Method: The method used is essentially in agreement with the method of Papp et al. [J. Cardiovascular Pharmacol. Ther. 1, 287-296 (1996)].
Right ventricular papillary muscle and Purkinje's fibres were prepared from the hearts of mongrel dogs (weighing 5 to 10 kg each). The preparations were placed into an organ bath (37° C.) containing modified Tyrode's nutrient medium. The preparations were excited by a basal frequency of 1 Hz. During the experiments, the frequency of stimulation was varied under broad limits by a computer-guided stimulator. The intracellular action potentials were registered by using glass capillary microelectrodes filled with 3 N potassium chloride solution (standard intracellular microelectrode techniques). The resting potential (RP), the amplitude of the action potential (APA) as well as the duration of the action potential (APD) were measured by using an IBM 386 compatible computer by means of an own-developed software. The compounds under test were directly added into the organ bath after dilution of the stock solutions according to the final concentrations desired. The effects of the compounds were observed after an incubation time of 30 to 40 minutes.

[3] = 1 Hz, read-out: Prolongation (%) of ERP
[4] = 1 Hz, read-out: Prolongation (%) of impulse conduction time
[5] = 3 Hz, read-out: Prolongation (%) of ERP
[6] = 3 Hz, read-out: Prolongation (%) of impulse conduction time

Row | Compound | activation at 10 µM [1, 3] [%] | activation at 10 µM [1, 4] [%] | activation at 10 µM [1, 5] [%] | activation at 10 µM [1, 6] [%] | effect on effective refractory period (in words) [1] | effect on impulse conduction (in words) [1] | APA (amplitude of the action potential) ([2]; 5 μM) [mV] | APD50 (time of 50% repolarization) ([2]; 5 μM) [ms] | APD90 (time of 90% repolarization) ([2]; 5 μM) [ms] | RP (resting potential) ([2]; 5 μM) [mV] | Recovery Ampl ([2]; 5 μM) [V/s] | Recovery Ampl/Plateau ([2]; 5 μM) | Recovery Plateau ([2]; 5 μM) [V/s] | Vmax (maximum rate of depolarization) ([2]; 5 μM) [V/s] | Trecovery (recovery time constant of Vmax) ([2]; 5 μM) [ms] | effect on duration of the action potential (in words) [2] | effect on Vmax (in words) [2] | also measured
1 | Cc1cccc(C)c1OC[C@H](C)N(C)CCc1ccc(NS(C)(=O)=O)cc1 [Example 16, (S)-N-[4-[2-[N-Methyl-N-[2-(2,6-dimethylphenoxy)-1-methylethyl]amino]ethyl]pbenyl]methanesulfonamide hydrochloride] | 10.7 | 26.9 | 14.3 | 39.7 | simultaneous prolongation of the effective refractory period (ERP) | significantly prolonged the time of impulse conduction in a frequency-dependent manner | 105 | 195 | 244 | -86 | 75.8 | 0.39 | 196.4 | 199 | 249.5 | simultaneous prolongation of duration of the action potential (APD) | mexiletine-like inhibition of Vmax | difference between the effects of Example 15 and its enantiomers (in words) ([2]; 5 μM): No essential difference could be observed
2 | Cc1cccc(C)c1OCC(C)N(C)CCc1ccc(N)cc1 (centres unmarked) [Example 9, N-[2-(2,6-Dimethylphenoxy)-1-methylethyl]-N-methyl-2-(4-aminophenyl)ethylamine] |  |  |  |  | simultaneous prolongation of the effective refractory period (ERP) | significantly prolonged the time of impulse conduction in a frequency-dependent manner |  |  |  |  |  |  |  |  |  | simultaneous prolongation of duration of the action potential (APD) | mexiletine-like inhibition of Vmax | activation at 2 µM [1, 3]: 31.8%; activation at 2 µM [1, 4]: 38%; activation at 2 µM [1, 5]: 39.4%; activation at 2 µM [1, 6]: 51.3%; APA (amplitude of the action potential) ([2]; 1 μM): 110 mV; APD50 (time of 50% repolarization) ([2]; 1 μM): 285 ms; APD90 (time of 90% repolarization) ([2]; 1 μM): 342 ms; RP (resting potential) ([2]; 1 μM): -91 mV; Recovery Ampl ([2]; 1 μM): 132.4 V/s; Recovery Ampl/Plateau ([2]; 1 μM): 0.61; Recovery Plateau ([2]; 1 μM): 216.5 V/s; Vmax (maximum rate of depolarization) ([2]; 1 μM): 200 V/s; Trecovery (recovery time constant of Vmax) ([2]; 1 μM): 307.4 ms
3 | Cc1cccc(C)c1OCC(C)NCCc1ccc(NS(C)(=O)=O)cc1.Cl (centres unmarked) [Example 22, N-[4-[2-[N-[2-(2,6-Dimethylphenoxy)-1-methylethyl]amino]-ethyl]phenyl]methanesulfonamide hydrochloride] | 12.3 | 22.6 | 18.1 | 28.3 |  |  | 100 | 215 | 260 | -80 | 136.3 | 0.58 | 232.8 | 159 | 337.8 | simultaneous prolongation of duration of the action potential (APD) | mexiletine-like inhibition of Vmax | 
